# Assay results taken from patent US8192962B2, “Processes for detecting toxic substances” (Daikin Industries, Ltd., priority 2001, dated 2012).
# Tested on: Unknown protein yeast genes
# Assay: DNA chip mRNA expression in yeast, unknown protein yeast genes (Table 1)
# Assay type: cell-based, Saccharomyces cerevisiae S288C
# Method in brief: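 First, S288C yeast grown in YPD at 25° C. are dosed in log phase with one toxicant (growth-inhibiting, not lethal) for 2 h. Next, total RNA is extracted and poly(A) mRNA isolated and reverse-transcribed with Cy3/Cy5-dUTP. Finally, whole-genome chip fluorescence is read relative to unexposed cells.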
smiles,measurement,setting,value
"CN(C)C(=S)SSC(=S)N(C)C [(10), Tetramethylthiuram disulfide]",The level of expressed mRNA in the presence of chemical substance/The level of expressed mRNA in the absence of chemical substance,"yeast gene YAL053W, incubated two hours with chemical substance",0.9
same,The level of expressed mRNA in the presence of chemical substance/The level of expressed mRNA in the absence of chemical substance,yeast gene YBL048W,4.4
same,The level of expressed mRNA in the presence of chemical substance/The level of expressed mRNA in the absence of chemical substance,yeast gene YBL107C,3.1
same,The level of expressed mRNA in the presence of chemical substance/The level of expressed mRNA in the absence of chemical substance,yeast gene YBR100W,3.0
same,The level of expressed mRNA in the presence of chemical substance/The level of expressed mRNA in the absence of chemical substance,"yeast gene YDL072C, incubated two hours with chemical substance",1.5
same,The level of expressed mRNA in the presence of chemical substance/The level of expressed mRNA in the absence of chemical substance,"yeast gene YDL204W, incubated two hours with chemical substance",2.0
same,The level of expressed mRNA in the presence of chemical substance/The level of expressed mRNA in the absence of chemical substance,"yeast gene YDL222C, incubated two hours with chemical substance",1.0
same,The level of expressed mRNA in the presence of chemical substance/The level of expressed mRNA in the absence of chemical substance,"yeast gene YDR330W, incubated two hours with chemical substance",2.6
same,The level of expressed mRNA in the presence of chemical substance/The level of expressed mRNA in the absence of chemical substance,"yeast gene YDR391C, incubated two hours with chemical substance",2.7
same,The level of expressed mRNA in the presence of chemical substance/The level of expressed mRNA in the absence of chemical substance,"yeast gene YDR411C, incubated two hours with chemical substance",1.0
same,The level of expressed mRNA in the presence of chemical substance/The level of expressed mRNA in the absence of chemical substance,"yeast gene YDR511W, incubated two hours with chemical substance",2.2
same,The level of expressed mRNA in the presence of chemical substance/The level of expressed mRNA in the absence of chemical substance,"yeast gene YDR545W, incubated two hours with chemical substance",0.7
same,The level of expressed mRNA in the presence of chemical substance/The level of expressed mRNA in the absence of chemical substance,"yeast gene YEL001C, incubated two hours with chemical substance",1.2
same,The level of expressed mRNA in the presence of chemical substance/The level of expressed mRNA in the absence of chemical substance,"yeast gene YER004W, incubated two hours with chemical substance",2.9
same,The level of expressed mRNA in the presence of chemical substance/The level of expressed mRNA in the absence of chemical substance,"yeast gene YER035W, incubated two hours with chemical substance",1.4
same,The level of expressed mRNA in the presence of chemical substance/The level of expressed mRNA in the absence of chemical substance,"yeast gene YER079W, incubated two hours with chemical substance",3.4
same,The level of expressed mRNA in the presence of chemical substance/The level of expressed mRNA in the absence of chemical substance,"yeast gene YER106W, incubated two hours with chemical substance",1.8
same,The level of expressed mRNA in the presence of chemical substance/The level of expressed mRNA in the absence of chemical substance,"yeast gene YER158C, incubated two hours with chemical substance",1.6
same,The level of expressed mRNA in the presence of chemical substance/The level of expressed mRNA in the absence of chemical substance,"yeast gene YER163C, incubated two hours with chemical substance",3.4
same,The level of expressed mRNA in the presence of chemical substance/The level of expressed mRNA in the absence of chemical substance,"yeast gene YER175C, incubated two hours with chemical substance",11.5
same,The level of expressed mRNA in the presence of chemical substance/The level of expressed mRNA in the absence of chemical substance,"yeast gene YFL006W, incubated two hours with chemical substance",1.7
same,The level of expressed mRNA in the presence of chemical substance/The level of expressed mRNA in the absence of chemical substance,"yeast gene YFL010C, incubated two hours with chemical substance",1.4
same,The level of expressed mRNA in the presence of chemical substance/The level of expressed mRNA in the absence of chemical substance,yeast gene YFL024C,0.5
same,The level of expressed mRNA in the presence of chemical substance/The level of expressed mRNA in the absence of chemical substance,"yeast gene YFL032W, incubated two hours with chemical substance",0.6
same,The level of expressed mRNA in the presence of chemical substance/The level of expressed mRNA in the absence of chemical substance,yeast gene YFR020W,3.5
same,The level of expressed mRNA in the presence of chemical substance/The level of expressed mRNA in the absence of chemical substance,"yeast gene YGL037C, incubated two hours with chemical substance",1.6
same,The level of expressed mRNA in the presence of chemical substance/The level of expressed mRNA in the absence of chemical substance,"yeast gene YGL047W, incubated two hours with chemical substance",5.7
same,The level of expressed mRNA in the presence of chemical substance/The level of expressed mRNA in the absence of chemical substance,"yeast gene YGL053W, incubated two hours with chemical substance",2.4
same,The level of expressed mRNA in the presence of chemical substance/The level of expressed mRNA in the absence of chemical substance,yeast gene YGL121C,15.0
same,The level of expressed mRNA in the presence of chemical substance/The level of expressed mRNA in the absence of chemical substance,"yeast gene YGL199C, incubated two hours with chemical substance",0.1
same,The level of expressed mRNA in the presence of chemical substance/The level of expressed mRNA in the absence of chemical substance,"yeast gene YGR101W, incubated two hours with chemical substance",1.4
same,The level of expressed mRNA in the presence of chemical substance/The level of expressed mRNA in the absence of chemical substance,yeast gene YGR110W,4.8
same,The level of expressed mRNA in the presence of chemical substance/The level of expressed mRNA in the absence of chemical substance,"yeast gene YGR130C, incubated two hours with chemical substance",1.5
same,The level of expressed mRNA in the presence of chemical substance/The level of expressed mRNA in the absence of chemical substance,"yeast gene YGR154C, incubated two hours with chemical substance",9.1
same,The level of expressed mRNA in the presence of chemical substance/The level of expressed mRNA in the absence of chemical substance,"yeast gene YGR221C, incubated two hours with chemical substance",0.7
same,The level of expressed mRNA in the presence of chemical substance/The level of expressed mRNA in the absence of chemical substance,yeast gene YGR243W,3.0
same,The level of expressed mRNA in the presence of chemical substance/The level of expressed mRNA in the absence of chemical substance,yeast gene YHR029C,8.6
same,The level of expressed mRNA in the presence of chemical substance/The level of expressed mRNA in the absence of chemical substance,yeast gene YHR105W,3.4
same,The level of expressed mRNA in the presence of chemical substance/The level of expressed mRNA in the absence of chemical substance,"yeast gene YHR138C, incubated two hours with chemical substance",4.6
same,The level of expressed mRNA in the presence of chemical substance/The level of expressed mRNA in the absence of chemical substance,"yeast gene YHR199C, incubated two hours with chemical substance",6.0
same,The level of expressed mRNA in the presence of chemical substance/The level of expressed mRNA in the absence of chemical substance,yeast gene YHR209W,6.4
same,The level of expressed mRNA in the presence of chemical substance/The level of expressed mRNA in the absence of chemical substance,"yeast gene YIL023C, incubated two hours with chemical substance",1.6
same,The level of expressed mRNA in the presence of chemical substance/The level of expressed mRNA in the absence of chemical substance,"yeast gene YIL024C, incubated two hours with chemical substance",1.8
same,The level of expressed mRNA in the presence of chemical substance/The level of expressed mRNA in the absence of chemical substance,"yeast gene YIL041W, incubated two hours with chemical substance",1.4
same,The level of expressed mRNA in the presence of chemical substance/The level of expressed mRNA in the absence of chemical substance,"yeast gene YIL087C, incubated two hours with chemical substance",1.8
same,The level of expressed mRNA in the presence of chemical substance/The level of expressed mRNA in the absence of chemical substance,"yeast gene YJL057C, incubated two hours with chemical substance",6.1
same,The level of expressed mRNA in the presence of chemical substance/The level of expressed mRNA in the absence of chemical substance,"yeast gene YJL066C, incubated two hours with chemical substance",2.1
same,The level of expressed mRNA in the presence of chemical substance/The level of expressed mRNA in the absence of chemical substance,"yeast gene YJL082W, incubated two hours with chemical substance",2.9
same,The level of expressed mRNA in the presence of chemical substance/The level of expressed mRNA in the absence of chemical substance,"yeast gene YJL151C, incubated two hours with chemical substance",1.6
same,The level of expressed mRNA in the presence of chemical substance/The level of expressed mRNA in the absence of chemical substance,"yeast gene YJL152W, incubated two hours with chemical substance",1.0
same,The level of expressed mRNA in the presence of chemical substance/The level of expressed mRNA in the absence of chemical substance,"yeast gene YJL161W, incubated two hours with chemical substance",2.1
same,The level of expressed mRNA in the presence of chemical substance/The level of expressed mRNA in the absence of chemical substance,"yeast gene YJL171C, incubated two hours with chemical substance",1.7
same,The level of expressed mRNA in the presence of chemical substance/The level of expressed mRNA in the absence of chemical substance,"yeast gene YJR008W, incubated two hours with chemical substance",1.9
same,The level of expressed mRNA in the presence of chemical substance/The level of expressed mRNA in the absence of chemical substance,"yeast gene YJR054W, incubated two hours with chemical substance",0.6
same,The level of expressed mRNA in the presence of chemical substance/The level of expressed mRNA in the absence of chemical substance,yeast gene YKL071W,109.2
